In test [1] the target is human RORγt ligand binding domain (RORγt LBD) (Homo sapiens (Human), UniProt P51449). Briefly: RORγt ThermoFluor® assay (thermal shift binding). The conditions noted are these: read-out: ThermoFluor® Assay, Kd. The source says: ThermoFluor® is a fluorescence based assay that estimates ligand binding affinities by measuring the effect of a ligand on protein thermal stability (Pantoliano, M. W., Petrella, E. C., Kwasnoski, J. D., Lobanov, V. S., Myslik, J., Graf, E., Carver, T., Asel, E., Springer, B. A., Lane, P., and Salemme, F. R. (2001) High-density miniaturized thermal shift assays as a general strategy for drug discovery. J Biomol Screen 6, 429-40, and Matulis, D., Kranz, J. K., Salemme, F. R., and Todd, M. J. (2005) Thermodynamic stability of carbonic anhydrase: measurements of binding affinity and stoichiometry using ThermoFluor. Biochemistry 44, 5258-66). This approach is applicable to a wide variety of systems, and rigorous in theoretical interpretation through quantitation of equilibrium binding constants (KD).
The shift in the melting point described as a ΔTm is proportional to the concentration and affinity of the ligand. The compound potency may be compared as a rank order of either ΔTm values at a single compound concentration or in terms of KD values, estimated from concentration response curves.
RORγt ThermoFluor® Assay Construct
For the RORγt construct used in the ThermoFluor® assay, numbering for the nucleotide sequences was based on the reference sequence for human RORγt, transcript variant 2, NCBI Accession: NM_001001523.1 (SEQ ID NO:1). Nucleotides 850-1635 (SEQ ID NO:2) coding for the wild type human RORγt ligand binding domain (RORγt LBD) were cloned into the pHIS1 vector, a modified pET E. coli expression vector (Accelagen, San Diego), containing an in-frame N-terminal His-tag and a TurboTEV protease cleavage site (ENLYFQG, SEQ ID NO:3) upstream of the cloned insert sequence. The amino acid sequence for the RORγt construct used in the Thermofluor® assay is shown as SEQ ID NO:4.
ThermoFluor® experiments were carried out using instruments owned by Janssen Research and Discovery, L.L.C. through its acquisition of 3-Dimensional Pharmaceuticals, Inc. 1,8-ANS (Invitrogen) was used as a fluorescent dye. Protein and compound solutions are dispensed into black 384-well polypropylene PCR microplates (Abgene) and overlayed with silicone oil (1 μL, Fluka, type DC 200) to prevent evaporation.
Bar-coded assay plates are robotically loaded onto a thermostatically controlled PCR-type thermal block and then heated at a typical ramp-rate of 1° C./min for all experiments. Fluorescence was measured by continuous illumination with UV light (Hamamatsu LC6) supplied via fiber optic and filtered through a band-pass filter (380-400 nm; >6 OD cutoff). Fluorescence emission of the entire 384-well plate was detected by measuring light intensity using a CCD camera (Sensys, Roper Scientific) filtered to detect 500±25 nm, resulting in simultaneous and independent readings of all 384 wells. Images were collected at each temperature, and the sum of the pixel intensity in a given area of the assay plate was recorded versus temperature. Reference wells contained RORγt without compounds, and the assay conditions were as follows: • 0.065 mg/mL RORγt • 60 μM 1,8-ANS • 100 mM Hepes, pH 7.0 • 10 mM NaCl • 2.5 mM GSH • 0.002% Tween-20
Project compounds were arranged in a pre-dosed mother plate (Greiner Bio-one) wherein compounds are serially diluted in 100% DMSO by 1:2 from a high concentration of 10 mM over 12 columns within a series (column 12 is a reference well containing DMSO, no compound). The compounds were robotically dispensed directly into assay plates (×=46 nL) using a Hummingbird capillary liquid handling instrument (Digilab). Following compound dispense, protein and dye in buffer was added to achieve the final assay volume of 3 μL, followed by 1 μL of silicone oil.
Background: In DSF a fluorescence change marks the thermal transition of the protein.

The target of another test is full-length human RORγt (Homo sapiens (Human), UniProt P51449). Briefly: RORγt (full-length human) reporter assay, Conditions B or C. The class given is cell-based. As to conditions: for inhibition at 3 µM: at 3 μM compound concentration, read-out: RORγt (FL) Reporter Assay B or C, % inhibition; for IC50: read-out: RORγt (FL) Reporter Assay B or C, IC50. The text has this: RORγt (Full-Length Human) Reporter Assay:
Cells used in this assay were transiently co-transfected with three different plasmids, one expressing the GAL4-DNA binding domain (DBD)-RORγt fusion protein under control of a CMV promoter (NH2-Gal4-DBD:RORC-COOH in pCMV-BD, Stratagene #211342), and two reporter plasmids—the firefly luciferase reporter under control of a GAL4 promoter (pFR-Luc 2×GAL4) and Renilla luciferase reporter under control of CMV promoter (pRL-CMV, Promega # E2261). The full-length coding sequence was used for human RORγt, i.e., nucleotides 142-1635 of human RORγt, transcript variant 2, NCBI Accession: NM_001001523.1 (SEQ ID NO:1). HEK293T cells were plated at 35,000 per well in 96-well plate in medium of DMEM with 10% FBS. After 18-22 hours incubation, the transfection was carried out by using a PEI solution with 170.5 ng total DNA/well (50 ng pCMV-BD-ROR plus 20 ng of pFR-Luc reporter and 0.5 ng of pRL-CMV reporter plus 100 ng Carrier DNA (Clontech #630440) for each well). 4-6 hours after transfection, cells were treated with compounds for overnight in the medium with final concentration of FBS 1.3% and DMSO 0.1%. After overnight (16 to 20 hours) incubation, media were removed and cells were lysed with 50 μL Glo Lysis Buffer (Promega) for 10-15 minutes followed by 10 minute incubation with 50 μL Dual Glo reagent (Promega) at room temperature. Firefly luciferase luminescence was measured using a BMG Pherastar plate reader. To each well, 50 μL Stop and Glo reagent was added and incubated for 10 minutes at room temperature. Renilla luminescence was measured using a BMG Pherastar plate reader. To calculate the effect of compounds on RORγt activity, firefly values were normalized against values of DMSO only and values of reference compound at saturating concentration, then further normalized against Renilla signals. IC50s were generated by plotting final Renilla normalized data against compound concentration and percent inhibition was calculated against DMSO control.
Cells used in this assay were transiently co-transfected with three different plasmids, one expressing the GAL4-DNA binding domain (DBD)-RORγt fusion protein under control of a CMV promoter (NH2-Gal4-DBD:RORC-COOH in pCMV-BD, Stratagene #211342), and two reporter plasmids—the firefly luciferase reporter under control of a GAL4 promoter (pFR-Luc 2×GAL4) and Renilla luciferase reporter under control of CMV promoter (pRL-CMV, Promega # E2261). The full-length coding sequence was used for human RORγt, i.e., nucleotides 142-1635 of human RORγt, transcript variant 2, NCBI Accession: NM_001001523.1 (SEQ ID NO:1). HEK293T cells were plated at 8750 cells per well in 384-well plate in medium of DMEM with 10% FBS. After 18-22 hours incubation, the transfection was carried out by using a PEI solution with 42.6 ng total DNA/well (12.5 ng pCMV-BD-ROR plus 5 ng of pFR-Luc reporter and 0.125 ng of pRL-CMV reporter plus 25 ng Carrier DNA (Clontech #630440) for each well). 4-6 hours after transfection, cells were treated with compounds for overnight in the medium with final concentration of FBS 1.3% and DMSO 0.1%. After overnight (16 to 20 hours) incubation, media were removed and cells were lysed with 20 μL Glo Lysis Buffer (Promega) for 10-15 minutes followed by 10 minute incubation with 20 μL Dual Glo reagent (Promega) at room temperature. Firefly luciferase luminescence was measured using a BMG Pherastar plate reader. To each well, 20 μL Stop and Glo reagent was added and incubated for 10 minutes at room temperature. Renilla luminescence was measured using a BMG Pherastar plate reader. To calculate the effect of compounds on RORγt activity, firefly values were normalized against values of DMSO only and values of reference compound at saturating concentration, then further normalized against Renilla signals.
Background: In a reporter assay the amount or activity of a reporter protein is the signal.

SMILES strings stand for the structures.

full-length human RORγt, sequence (P51449 other isoform, or with tags, fused parts or gaps): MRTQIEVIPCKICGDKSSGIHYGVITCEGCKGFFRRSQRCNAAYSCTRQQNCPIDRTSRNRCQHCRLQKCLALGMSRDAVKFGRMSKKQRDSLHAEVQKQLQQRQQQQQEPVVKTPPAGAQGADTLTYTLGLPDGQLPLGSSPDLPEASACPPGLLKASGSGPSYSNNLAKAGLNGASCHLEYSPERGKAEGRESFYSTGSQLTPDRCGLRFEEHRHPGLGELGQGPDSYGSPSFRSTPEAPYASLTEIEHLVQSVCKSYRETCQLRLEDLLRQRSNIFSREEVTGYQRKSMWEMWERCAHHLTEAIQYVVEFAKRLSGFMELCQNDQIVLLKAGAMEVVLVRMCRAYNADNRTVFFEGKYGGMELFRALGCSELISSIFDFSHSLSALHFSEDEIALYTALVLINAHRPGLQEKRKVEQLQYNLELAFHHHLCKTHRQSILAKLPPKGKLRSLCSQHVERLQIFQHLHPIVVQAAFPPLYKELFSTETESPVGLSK
human RORγt ligand binding domain (RORγt LBD), sequence (P51449 other isoform, or with tags, fused parts or gaps): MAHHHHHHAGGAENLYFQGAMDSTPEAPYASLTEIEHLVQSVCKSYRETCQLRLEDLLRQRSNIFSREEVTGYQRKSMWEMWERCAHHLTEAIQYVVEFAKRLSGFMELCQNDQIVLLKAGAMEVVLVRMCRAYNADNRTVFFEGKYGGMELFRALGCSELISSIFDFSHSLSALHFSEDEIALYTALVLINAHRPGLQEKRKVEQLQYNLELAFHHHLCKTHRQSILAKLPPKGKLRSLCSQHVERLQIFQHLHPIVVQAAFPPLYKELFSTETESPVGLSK

The Kd is a measure of binding affinity in units of concentration. Usually inhibition stands for the change of the read-out against control, counted positive when it falls. As a reminder, the IC50 is the concentration that gives 50% inhibition. On to `C[C@H](NC(=O)c1nc(C(=O)N2CC(F)(F)C[C@@H]2C)c(-c2cnc(N[C@@H](C3CC3)C(F)(F)F)cc2C(F)F)s1)C(C)(C)O` [Example 313, 5-(6-(((S)-1-Cyclopropyl-2,2,2-trifluoroethyl)amino)-4-(difluoromethyl)pyridin-3-yl)-4-((S)-4,4-difluoro-2-methylpyrrolidine-1-carbonyl)-N—((S)-3-hydroxy-3-methylbutan-2-yl)thiazole-2-carboxamide], for which, in test [1], the Kd came to 0.74 nM. Besides, at full-length human RORγt, the inhibition at 3 µM stood at 106% and the IC50 is 36 nM.

Consider `C[C@H]1CCCN1C(=O)c1nc(C(=O)N2CCC(C)(O)C2)sc1-c1cnc(NC(C)(C)C)cc1C(F)(F)F` (stereo partly drawn) [Example 364, (5-(6-(tert-Butylamino)-4-(trifluoromethyl)pyridin-3-yl)-2-(3-hydroxy-3-methylpyrrolidine-1-carbonyl)thiazol-4-yl)((S)-2-methylpyrrolidin-1-yl)methanone], for which the Kd in test [1] was 7.9 nM. Also, on full-length human RORγt, the inhibition at 3 µM worked out at 111% and the IC50 was found to be 39 nM.

On to `C[C@H]1CCCN1C(=O)c1nc(C(=O)N[C@H]2C[C@H](O)C2)sc1-c1cnc(N[C@@H](C2CC2)C(F)(F)F)cc1C(F)F` [Example 310, 5-(6-(((S)-1-Cyclopropyl-2,2,2-trifluoroethyl)amino)-4-(difluoromethyl)pyridin-3-yl)-N-((1r,3S)-3-hydroxycyclobutyl)-4-((S)-2-methylpyrrolidine-1-carbonyl)thiazole-2-carboxamide], for which, in test [1], the Kd stood at 8.7 nM. For the same compound, at full-length human RORγt, the inhibition at 3 µM amounted to 92% and the IC50 turned out to be 36 nM.

Regarding `C[C@H](CO)NC(=O)c1nc(C(=O)N2CCC[C@@H]2C)c(-c2cnc(NC(C)(C)C)cc2C(F)(F)F)s1` [Example 346, 5-[6-(tert-Butylamino)-4-(trifluoromethyl)-3-pyridyl]-N-[(1R)-2-hydroxy-1-methyl-ethyl]-4-[(2S)-2-methylpyrrolidine-1-carbonyl]thiazole-2-carboxamide], in test [1], the Kd was 1.4 nM. Also, at full-length human RORγt, the inhibition at 3 µM was 112% and the IC50 stood at 13 nM.

With `CC[C@H](Nc1cc(C(F)F)c(-c2sc(C(=O)NCC(C)(C)O)nc2C(=O)N2CCC[C@@H]2C)cn1)C(F)(F)F` [Example 92, 5-(4-(Difluoromethyl)-6-(((S)-1,1,1-trifluorobutan-2-yl)amino)pyridin-3-yl)-N-(2-hydroxy-2-methylpropyl)-4-((S)-2-methylpyrrolidine-1-carbonyl)thiazole-2-carboxamide], at full-length human RORγt (Conditions B or C, marked *: footnote not given), the “RORγt (FL) Reporter Assay B or C, % inhibition (value marked *)” value was 106* %.

For `C[C@H](Nc1cc(C(F)F)c(-c2sc(C(=O)NCC(C)(C)O)nc2C(=O)N2CCC[C@@H]2C)cn1)C(F)(F)F` [Example 145, 5-(4-(Difluoromethyl)-6-(((S)-1,1,1-trifluoropropan-2-yl)amino)pyridin-3-yl)-N-(2-hydroxy-2-methylpropyl)-4-((S)-2-methylpyrrolidine-1-carbonyl)thiazole-2-carboxamide], at full-length human RORγt (Conditions B or C, marked ***: footnote not given), the “RORγt (FL) Reporter Assay B or C, % inhibition (value marked ***)” value is reported as 76*** %.

With `[2H]C([2H])(NC(=O)c1nc(C(=O)N2CCC[C@@H]2C)c(-c2cnc(N[C@@H](C)C(F)(F)F)cc2C(F)F)s1)C(C)(C)O` [Example 286, 5-(4-(Difluoromethyl)-6-(((S)-1,1,1-trifluoropropan-2-yl)amino)pyridin-3-yl)-N-(2-hydroxy-2-methylpropyl-1,1-d2)-4-((S)-2-methylpyrrolidine-1-carbonyl)thiazole-2-carboxamide], at full-length human RORγt, the inhibition at 3 µM was 104%.

For the compound `C[C@H]1CCCN1C(=O)c1nc(C(=O)NCC(C)(C)O)sc1-c1cnc(NC2CCCCC2)c(C#N)c1` [Example 281, 5-[5-Cyano-6-(cyclohexylamino)-3-pyridyl]-N-(2-hydroxy-2-methyl-propyl)-4-[(2S)-2-methylpyrrolidine-1-carbonyl]thiazole-2-carboxamide], at full-length human RORγt, the inhibition at 3 µM stood at 98% and the IC50 is 830 nM.

Consider `[2H]C([2H])(NC(=O)c1nc(C(=O)N2CCC[C@@H]2C)c(-c2cnc(N[C@@H](CC)C(F)(F)F)cc2C(F)F)s1)C(C)(C)O` [Example 266, N-(1,1-Dideuterio-2-hydroxy-2-methyl-propyl)-5-[4-(difluoromethyl)-6-[[(1S)-1-(trifluoromethyl)propyl]amino]-3-pyridyl]-4-[(2S)-2-methylpyrrolidine-1-carbonyl]thiazole-2-carboxamide], for which the inhibition at 3 µM at full-length human RORγt was determined as 100%.

The values are drawn from US10975068B2, “6-aminopyridin-3-yl thiazoles as modulators of RORγT” (Janssen Pharmaceutica NV, priority 2016, dated 2021).
